Consider 3 molecules from patent US20240009148A1, “Cystamine Formulations and Uses Thereof” (Birch Therapeutics, Inc., priority 2020, published 2024).

The structures appear in SMILES notation. Counter-ions that a name gives are not always drawn. Like-named read-outs stand apart in the source and are kept apart here.

On the set-up of series [1]: species or system male Sprague Dawley rats. The conditions noted are these: rat, in vivo. As for the experimental part: Cystamine dihydrochloride and cysteamine hydrochloride were administered to rats 1) orally on an empty stomach; 2) orally on full stomach; and 3) intra-cecum to evaluate the pharmacokinetics of cystamine and to compare it to cysteamine pharmacokinetics. Oral administration (PO) simulated immediate-release (IR) formulations. Intra-cecum (IC) administration simulated large intestine release (LIR) formulations, which provides a time to Cmax of more than 4 hours after administration.
Animal studies were performed by Absorption Systems. Test articles: Cysteamine hydrochloride (CH), 98%; Cystamine dihydrochloride (HCCH), 95-96% (both obtained from Sigma Aldrich). CH has one cysteamine base, while HCCH, upon disulfide bond reduction, yields two cysteamine molecules. CH and HCCH were administered at a dose selected to deliver 30 mg/kg of cysteamine base (44.2 mg/kg and 43.8 mg/kg respectively), so that each rat received same number of cysteamine molecules. Test articles (dry powder) were dissolved in 3 mL for PO and in 0.5 mL for IC of room temperature water no more than 15 minutes before dosing.
Five (5) male Sprague Dawley rats ˜300-350 gram (Envigo) were used per group, with 6 groups total.
All animals were healthy at the start of the trial and assigned randomly to the study groups by weight. Fed state animals had food and water supplied ad libitum. Fasted state animals had food removed at least 12 hours prior to dosing and food was returned 4 hours post dosing; water was supplied ad libitum. Oral gavage needle and syringe were used for oral administration. For IC dose administration, the animals were anesthetized with isoflurane regulated at ˜1-3% in oxygen. The abdominal cavity was surgically opened and the proximal large intestine was exposed. A test article was administered directly into the proximal large intestine with a 1 cc disposable syringe equipped with a 25 g hypodermic needle. The surgical site was then closed with staples or suture.
Blood was sampled from jugular vein at the following time points: pre-dose, 15, 30, 60, 120, 180, and 240 minutes post dose. Blood samples were collected into tubes containing TBD anticoagulant, then centrifuged at a temperature of 4° C., at 3,000×g, for 5 minutes. Once prepared, plasma samples were snap frozen. Plasma samples were stored at −80° C. until analysis.
Sample analysis was performed by Integrated Analytical Solutions. To measure plasma cysteamine, to 10 uL of a plasma sample or standard was added 10 uL of internal standard with reduction solution: 5 ug/mL d4-cysteamine (CDN Isotopes), 10 mM TCEP in water, prepared fresh, and mixed thoroughly. The mixture was incubated at 37° C. for 60 minutes, then 40 uL of 5% trichloroacetic acid was added and the solution was mixed thoroughly. Samples were then centrifuged at 6100 g for 30 minutes. Next, 20 uL of each supernatant were transferred to an autosampler plate and sealed with a cap mat. The concentration of cysteamine was measured by use of LC/MS/MS tandem mass spectroscopy. Column Atlantis T3 2.1×30mm, 3um was used at a room temperature; mobile phase A: 0.1% heptafluorobutyric acid in water; mobile phase B: 0.2% formic acid in acetonitrile; injection volume: 3 uL. (API 4000 LC/MS/MS; Applied Biosystems). The following MS parameters were used—HPLC system: Shimadzu VP Series 10 System; MS/MS: Applied Biosystems/MDS SCIEX API 4000; software: Analyst v1.6.3; isolation method: Electrospray, Positive Ion; source temperature: TurbolonSpray (ESI) at 400°. Cysteamine concentrations were calculated with a calibration curve that was prepared by spiking plasma with buffered cysteamine solutions, and quality control samples were analyzed with each batch.

For series [2], the system named is cystinosis fibroblast cell culture. As to conditions: compared with cysteamine (Thoene 1976); cited from earlier work.

Consider `NCCS` [CH, Cysteamine hydrochloride, reference compound], for which, in series [1], the “Cmax of plasma cysteamine, IC compared to PO fasted” value is “higher” and the “Tmax (time to Cmax) of plasma cysteamine” value was found to be 15 min. For the same molecule, in series [1] (po), the “Tmax (time to Cmax) of plasma cysteamine” value came to 15 min.

On to `NCCSSCCN` [Cystamine], for which the “Decrease of lysosomal cystine” value in series [2] was “comparably to cysteamine”.

Regarding `Cl.Cl.NCCSSCCN` [HCCH, Cystamine dihydrochloride], in series [1] (male, Sprague Dawley, po), the “AUC for dosing into the large intestine lower than AUC for oral dosing” value is 25% and the “Cmax for IC dosing lower than Cmax after oral administration” value is “more than 50%”. For the same molecule, in series [1], the “Absorption pattern after dosing to the large intestine” value is “not rapid, but rather sustained”. For the same molecule, the “Cmax of plasma cysteamine compared to CH” value in series [1] (po) is “higher Cmax”.
